Test results taken from US20230027026A1, “FUSED PYRIMIDINE COMPOUNDS, COMPOSITIONS AND MEDICINAL APPLICATIONS THEREOF” (JUBILANT BIOSYS LIMITED, priority 2019, published 2023).

What was measured:
[1] = molecular target: T1, EGFR (T790M/L858R) (Homo sapiens, UniProt P00533, L858R/T790M); assay: EGFR L858R/T790M enzyme inhibition assay (HTRF); type: biochemical; conditions: 5 μM ATP, 60 min, read-out: EGFR_L858R T790M_IC50_nM
T1 construct: GST; purchased Proqinase
Experimental: Example 2: EGFR L858R & Del19/T790M Assay Protocol (to Find the IC50 for the Compounds Using HTRF Method)
Reagents for Enzyme Assay:
• 1. Enzyme Assay Buffer: 60 mM HEPES (pH 7.4), 50 mM NaCl, 20 mM MgCl2, 5 mM MnCl2, filtered using 0.2 μm pore size, stored at 4° C. • Supplements (added fresh to the enzyme buffer): 1M DTT stock was made, 5% BSA stock and 0.1M Na3OV4 stored at 4° C. Enzyme assay buffer 50 mL, 1 M DTT 100 μL, 5% BSA 500 μL, 0.1 M Na3OV4 50 μL. • 2. GST-hEGFR (L858R), active: EGFR (T790M/L858R), active (Proqinase), 3.6 μM stock; 2.5 nM in final assay. • 3. Gastrin Precusor-Biotinylated: Gastrin precursor (Tyr87) biotinylated peptide, EEAY*GWM, Cell Signaling Tech 1310, Lot-7, Want final 0.5 μM in assay. • 4. ATP: 10 mM stock in 100 μL Enzyme assay buffer pH 7.4 prepared freshly, want 5 μM in final assay. • 5. Test compounds: Powders were dissolved in 100% DMSO and made up to a final stock concentration of 10 mM (volume in μL to add for 10 mM=mg powder X 10^5/MW). Final compound concentration in the assay plate started at 10 μM.
• 1. HTRF buffer: 50 mM Tris —HCl, pH-7.5, 100 mM NaCl, 0.1% BSA, 0.05% Tween20, 0.5 mM EDTA, filtered using 0.2 μm pore size, stored at 4° C. • Phycolink® Streptavidin-Allophycocyanin (SA-APC) Prozyme, Cat. #PJ25S, Lot #896 085, 2.06 mg/mL, APC concentration is 11.6 μM, streptavidin concentration is 15.5 μM. Want 12 nM final in assay (based on streptavidin concentration). • 2. (Europium) Eu-W1024 Anti-phosphotyrosine (PT-66) Antibody: Perkin Elmer (Product Number: AD0068), monoclonal IgG1 that recognizes phosphotyrosine peptide 100 μg/ml stock. Want 0.1 nM final in assay.
• 1. The compound dilution was made by TECAN as per the above scheme. • 2. 16 μL of diluted compound was added to the assay plate by using TECAN. • 3. 10 μL of enzyme mix was added to each well except mins. • 4. 20 μL of substrate and ATP mix were added into each well of the assay plate, manually. • 5. The plate was incubated on a laboratory shaker at room temperature for 60 min. • 6. Meanwhile, the HTRF mix was prepared and 75 μL was added to the HTRF plate. • 7. When the incubation was over, 10 μL of the reaction mixture was transferred to the HTRF assay plate and incubated on a laboratory shaker for 30 min at room temperature. • 8. The reading was taken in Pherastar (ext 337 nm, Em 665 & 620 nm). • 9. The results were analyzed using Graphpad prism after calculation of the z factor, signal window and % inhibition to get the IC50.

[2] = test system: H1975 cells (L858R_T790M mutant); assay: H1975 proliferation assay; type: cell-based; conditions: Homo sapiens, NCI-H1975; read-out: Proliferation_Assay H1975 cells-EC50_nM L858R_T790M_mutant
[3] = test system: A431 cells; assay: Cellular proliferation (Alamar Blue) assay, A431; type: cell-based; conditions: Homo sapiens, A-431; A431 cells, 72 hr, Alamar Blue; read-out: A431 IC50
Procedure, shortened: (§1)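 Following a 16–18 h pre-incubation, cells received compound or DMSO for 72 h at 37 °C across a 10–0.0005 μM final range. Proliferation was then scored by Alamar Blue fluorescence (540 nm excitation, 590 nm emission) after 3 h.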

[4] = molecular target: EGFR (A767_dupASV) expressing Ba/F3 stable cell line (Homo sapiens, UniProt P00533, DUP767-769, cells depend on it); assay: Cellular proliferation (Alamar Blue) assay, EGFR A767_dupASV Ba/F3; type: cell-based; conditions: EGFR A767_dupASV Ba/F3, 72 hr, read-out: A767 IC50
Sequence of EGFR (A767_dupASV) expressing Ba/F3 stable cell line (P00533 with tags, fused parts or gaps DUP767-769): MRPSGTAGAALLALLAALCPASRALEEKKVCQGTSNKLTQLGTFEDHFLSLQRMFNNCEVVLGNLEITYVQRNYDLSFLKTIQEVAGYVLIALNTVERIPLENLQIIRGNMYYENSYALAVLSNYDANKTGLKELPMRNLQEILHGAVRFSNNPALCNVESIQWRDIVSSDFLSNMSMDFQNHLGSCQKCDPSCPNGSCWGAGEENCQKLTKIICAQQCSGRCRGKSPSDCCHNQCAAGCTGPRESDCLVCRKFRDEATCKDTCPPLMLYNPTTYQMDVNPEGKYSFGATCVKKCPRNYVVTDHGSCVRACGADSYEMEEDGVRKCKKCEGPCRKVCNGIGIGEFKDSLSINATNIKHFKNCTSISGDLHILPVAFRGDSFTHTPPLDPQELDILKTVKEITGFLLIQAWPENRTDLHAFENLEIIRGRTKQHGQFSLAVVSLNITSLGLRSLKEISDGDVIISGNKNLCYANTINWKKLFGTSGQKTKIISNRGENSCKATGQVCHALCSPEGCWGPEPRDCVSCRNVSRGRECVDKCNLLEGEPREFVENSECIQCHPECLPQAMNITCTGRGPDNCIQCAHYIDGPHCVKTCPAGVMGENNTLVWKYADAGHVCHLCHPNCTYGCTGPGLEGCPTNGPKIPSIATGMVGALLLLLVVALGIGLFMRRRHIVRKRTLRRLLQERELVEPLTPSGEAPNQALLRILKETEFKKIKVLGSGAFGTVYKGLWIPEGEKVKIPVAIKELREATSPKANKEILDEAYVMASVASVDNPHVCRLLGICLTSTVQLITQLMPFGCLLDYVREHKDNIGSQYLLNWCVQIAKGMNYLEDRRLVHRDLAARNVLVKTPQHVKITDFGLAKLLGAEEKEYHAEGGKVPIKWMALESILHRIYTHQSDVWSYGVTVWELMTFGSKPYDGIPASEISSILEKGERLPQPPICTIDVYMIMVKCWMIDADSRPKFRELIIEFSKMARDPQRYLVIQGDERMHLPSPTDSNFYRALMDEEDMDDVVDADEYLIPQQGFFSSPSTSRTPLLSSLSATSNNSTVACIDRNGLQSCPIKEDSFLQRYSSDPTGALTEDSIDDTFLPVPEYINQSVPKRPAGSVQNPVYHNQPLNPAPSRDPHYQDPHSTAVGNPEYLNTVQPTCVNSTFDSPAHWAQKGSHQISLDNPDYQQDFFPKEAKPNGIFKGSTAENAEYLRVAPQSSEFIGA
Procedure, shortened: as §1

[5] = molecular target: EGFR(D770_N771insSVD) expressing Ba/F3 stable cell line (Homo sapiens, UniProt P00533, DUP768-770, cells depend on it); assay: Cellular proliferation (Alamar Blue) assay, EGFR D770_N771insSVD Ba/F3; type: cell-based; conditions: EGFR D770_N771insSVD Ba/F3, 72 hr, read-out: D770 IC50
Sequence of EGFR(D770_N771insSVD) expressing Ba/F3 stable cell line (P00533 with tags, fused parts or gaps DUP768-770): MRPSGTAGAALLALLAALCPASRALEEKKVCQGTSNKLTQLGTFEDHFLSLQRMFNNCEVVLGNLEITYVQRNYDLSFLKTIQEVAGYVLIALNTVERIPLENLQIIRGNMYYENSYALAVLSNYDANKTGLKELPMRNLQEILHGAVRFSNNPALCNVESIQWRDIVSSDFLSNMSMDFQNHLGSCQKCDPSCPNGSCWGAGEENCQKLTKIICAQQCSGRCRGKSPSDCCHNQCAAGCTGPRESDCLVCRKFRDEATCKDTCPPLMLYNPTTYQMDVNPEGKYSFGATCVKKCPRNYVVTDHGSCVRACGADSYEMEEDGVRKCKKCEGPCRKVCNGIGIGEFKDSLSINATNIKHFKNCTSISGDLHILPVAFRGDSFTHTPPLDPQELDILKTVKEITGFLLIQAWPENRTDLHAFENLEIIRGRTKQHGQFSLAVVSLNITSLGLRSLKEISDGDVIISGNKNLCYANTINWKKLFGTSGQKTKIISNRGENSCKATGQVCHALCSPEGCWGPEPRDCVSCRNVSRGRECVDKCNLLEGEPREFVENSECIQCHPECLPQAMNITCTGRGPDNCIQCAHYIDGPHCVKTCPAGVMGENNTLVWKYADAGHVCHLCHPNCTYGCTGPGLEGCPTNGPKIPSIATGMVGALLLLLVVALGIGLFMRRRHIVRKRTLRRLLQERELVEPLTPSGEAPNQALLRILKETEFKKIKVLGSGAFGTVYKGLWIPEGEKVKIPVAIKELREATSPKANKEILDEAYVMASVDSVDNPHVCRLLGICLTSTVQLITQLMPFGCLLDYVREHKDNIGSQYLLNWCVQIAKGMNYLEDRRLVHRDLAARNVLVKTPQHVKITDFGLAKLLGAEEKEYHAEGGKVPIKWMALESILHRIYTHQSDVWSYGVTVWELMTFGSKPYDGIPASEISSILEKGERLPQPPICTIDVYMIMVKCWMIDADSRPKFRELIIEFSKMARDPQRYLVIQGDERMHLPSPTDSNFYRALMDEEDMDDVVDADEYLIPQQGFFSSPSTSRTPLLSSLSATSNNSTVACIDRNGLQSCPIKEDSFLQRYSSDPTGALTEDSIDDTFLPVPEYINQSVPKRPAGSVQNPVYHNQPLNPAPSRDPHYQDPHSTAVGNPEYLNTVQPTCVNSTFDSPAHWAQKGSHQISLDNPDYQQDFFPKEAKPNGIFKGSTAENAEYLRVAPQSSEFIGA
Procedure, shortened: as §1

T1 sequence (P00533 25-1210 T790M/L858R): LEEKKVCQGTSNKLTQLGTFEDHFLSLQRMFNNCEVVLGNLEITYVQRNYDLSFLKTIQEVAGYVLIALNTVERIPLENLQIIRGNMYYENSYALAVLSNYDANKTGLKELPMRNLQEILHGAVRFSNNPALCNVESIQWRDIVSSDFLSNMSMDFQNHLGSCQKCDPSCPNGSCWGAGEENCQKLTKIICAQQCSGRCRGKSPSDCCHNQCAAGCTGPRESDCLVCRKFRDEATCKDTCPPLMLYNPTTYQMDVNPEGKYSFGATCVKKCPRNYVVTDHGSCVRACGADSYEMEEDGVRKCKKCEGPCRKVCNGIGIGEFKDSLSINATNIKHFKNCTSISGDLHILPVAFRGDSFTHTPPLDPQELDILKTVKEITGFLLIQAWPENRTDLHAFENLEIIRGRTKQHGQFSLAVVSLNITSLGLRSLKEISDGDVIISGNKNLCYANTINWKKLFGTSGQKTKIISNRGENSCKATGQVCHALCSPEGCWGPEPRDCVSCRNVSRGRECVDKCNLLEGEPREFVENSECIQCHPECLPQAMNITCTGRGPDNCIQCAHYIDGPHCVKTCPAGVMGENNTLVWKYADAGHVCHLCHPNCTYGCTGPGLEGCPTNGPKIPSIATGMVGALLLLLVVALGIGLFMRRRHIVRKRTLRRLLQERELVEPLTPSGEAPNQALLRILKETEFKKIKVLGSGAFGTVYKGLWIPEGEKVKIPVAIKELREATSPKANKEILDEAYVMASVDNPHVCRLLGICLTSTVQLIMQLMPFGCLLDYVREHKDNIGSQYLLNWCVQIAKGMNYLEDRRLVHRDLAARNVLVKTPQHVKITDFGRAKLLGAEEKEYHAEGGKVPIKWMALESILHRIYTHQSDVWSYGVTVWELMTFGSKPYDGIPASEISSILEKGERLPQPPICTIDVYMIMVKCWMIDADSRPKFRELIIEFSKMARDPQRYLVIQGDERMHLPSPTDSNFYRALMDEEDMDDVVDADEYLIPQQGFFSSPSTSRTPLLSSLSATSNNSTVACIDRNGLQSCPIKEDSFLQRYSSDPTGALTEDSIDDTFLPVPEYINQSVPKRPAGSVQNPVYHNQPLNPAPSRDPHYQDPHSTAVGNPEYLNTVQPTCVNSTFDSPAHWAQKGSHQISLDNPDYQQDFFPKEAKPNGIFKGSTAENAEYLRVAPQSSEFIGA

SMILES	IC50 [1] [nM]	EC50 [2] [nM]	IC50 [3] [nM]	GI50 [4] [nM]	GI50 [5] [nM]
CN(C)C/C=C/C(=O)Nc1cccc(N2C(=O)N(Cc3ccccc3)Cc3cnc(Nc4ccc5c(cnn5C)c4)nc32)c1 [Compound 43, (E)-N-(3-(3-benzyl-7-((1-methyl-1H-indazol-5-yl)amino)-2-oxo-3,4-dihydropyrimido[4,5-d]pyrimidin-1(2H)-yl)phenyl)-4-(dimethylamino)but-2-enamide]	3.8	6.3	632	103	108
Cc1c(Nc2ncc3c(n2)N(c2cccc(NC(=O)/C=C/CN(C)C)c2)C(=O)N(Cc2ccccc2)C3)cnn1C [Compound 11, (E)-N-(3-(3-benzyl-7-((1,5-dimethyl-1H-pyrazol-4-yl)amino)-2-oxo-3,4-dihydropyrimido[4,5-d]pyrimidin-1(2H)-yl)phenyl)-4-(dimethylamino)but-2-enamide]	2	9.6	1710	1150	2430
CN(C)C/C=C/C(=O)Nc1cccc(N2C(=O)N(Cc3ccccc3)Cc3cnc(Nc4ccc5cnn(C)c5c4)nc32)c1 [Compound 45, (E)-N-(3-(3-benzyl-7-((1-methyl-1H-indazol-6-yl)amino)-2-oxo-3,4-dihydropyrimido[4,5-d]pyrimidin-1(2H)-yl)phenyl)-4-(dimethylamino)but-2-enamide]	11	46.7	1130	352	350
Cc1nn(CC(F)(F)F)cc1Nc1ncc2c(n1)N(c1cccc(NC(=O)/C=C/CN(C)C)c1)C(=O)N(Cc1ccccc1)C2 [Compound 8, (E)-N-(3-(3-benzyl-7-((3-methyl-1-(2,2,2-trifluoroethyl)-1H-pyrazol-4-yl)amino)-2-oxo-3,4-dihydropyrimido[4,5-d]pyrimidin-1(2H)-yl)phenyl)-4-(dimethylamino)but-2-enamide]	9	9.2	580	103	108
CN(C)C/C=C/C(=O)Nc1cccc(N2C(=O)N(Cc3ccccc3)Cc3cnc(Nc4cnn(CC(F)(F)F)c4)nc32)c1 [Compound 12, (E)-N-(3-(3-benzyl-2-oxo-7-((1-(2,2,2-trifluoroethyl)-1H-pyrazol-4-yl)amino)-3,4-dihydropyrimido[4,5-d]pyrimidin-1(2H)-yl)phenyl)-4-(dimethylamino)but-2-enamide]	3	6.6	1240	106	134
Cc1csc(Nc2ncc3c(n2)N(c2cccc(NC(=O)/C=C/CN(C)C)c2)C(=O)N(Cc2ccccc2)C3)n1 [Compound 48, (E)-N-(3-(3-benzyl-7-((4-methylthiazol-2-yl)amino)-2-oxo-3,4-dihydropyrimido[4,5-d]pyrimidin-1(2H)-yl)phenyl)-4-(dimethylamino)but-2-enamide]	3.5	133	148	456	361
Cc1nn(C)cc1Nc1ncc2c(n1)N(c1cccc(NC(=O)/C=C/CN(C)C)c1)C(=O)N(Cc1ccccc1)C2 [Compound 23, (E)-N-(3-(3-benzyl-7-((1,3-dimethyl-1H-pyrazol-4-yl)amino)-2-oxo-3,4-dihydropyrimido[4,5-d]pyrimidin-1(2H)-yl)phenyl)-4-(dimethylamino)but-2-enamide]	3	6.4	18	124	299
CN(C)C/C=C/C(=O)Nc1cccc(N2C(=S)N(c3ccccc3)Cc3cnc(Nc4cn(C)nc4Cl)nc32)c1 [Compound 51, (E)-N-(3-(7-((3-chloro-1-methyl-1H-pyrazol-4-yl)amino)-3-phenyl-2-thioxo-3,4-dihydropyrimido[4,5-d]pyrimidin-1(2H)-yl)phenyl)-4-(dimethylamino)but-2-enamide]	8	9.8	–	–	–
Cc1cnc(Nc2ncc3c(n2)N(c2cccc(NC(=O)/C=C/CN(C)C)c2)C(=O)N(Cc2ccccc2)C3)s1 [Compound 19, (E)-N-(3-(3-benzyl-7-((5-methylthiazol-2-yl)amino)-2-oxo-3,4-dihydropyrimido[4,5-d]pyrimidin-1(2H)-yl)phenyl)-4-(dimethylamino)but-2-enamide]	6	16	–	–	–

Results, then the molecule that gave them:

IC50 [1] [nM]	EC50 [2] [nM]	IC50 [3] [nM]	GI50 [4] [nM]	GI50 [5] [nM]	SMILES
303	≥ 10000	4400	9190	≥ 10000	Cc1cnc(Nc2ncc3c(n2)N(C2CCCC(NC(=O)/C=C/CN(C)C)C2)C(=O)N(Cc2ccccc2)C3)s1 (stereo not drawn) [Compound 27, (E)-N-(3-(3-benzyl-7-((5-methylthiazol-2-yl)amino)-2-oxo-3,4-dihydropyrimido[4,5-d]pyrimidin-1(2H)-yl)cyclohexyl)-4-(dimethylamino)but-2-enamide]
3	29	83	320	69	C=CC(=O)Nc1cccc(N2C(=O)N(Cc3ccccc3)Cc3cnc(Nc4nc(C)cs4)nc32)c1 [Compound 25, N-(3-(3-benzyl-7-((4-methylthiazol-2-yl)amino)-2-oxo-3,4-dihydropyrimido[4,5-d]pyrimidin-1(2H)-yl)phenyl)acrylamide]
53	71	8340	356	340	C=CC(=O)NC1CCCC(N2C(=O)N(Cc3ccccc3)Cc3cnc(Nc4cnn(C)c4)nc32)C1 (stereo not drawn) [Compound 24, N-(3-(3-benzyl-7-((1-methyl-1H-pyrazol-4-yl)amino)-2-oxo-3,4-dihydropyrimido[4,5-d]pyrimidin-1(2H)-yl)cyclohexyl)acrylamide]
6	9.3	–	–	–	CN(C)C/C=C/C(=O)Nc1cccc(N2C(=O)N(Cc3ccccc3)Cc3cnc(Nc4cnn(C5CC5)c4)nc32)c1 [Compound 7, (E)-N-(3-(3-benzyl-7-((1-cyclopropyl-1H-pyrazol-4-yl)amino)-2-oxo-3,4-dihydropyrimido[4,5-d]pyrimidin-1(2H)-yl)phenyl)-4-(dimethylamino)but-2-enamide]
1	5.7	–	–	–	C=CC(=O)Nc1cccc(N2C(=O)N(Cc3ccccc3)Cc3cnc(Nc4cnn(C5CC5)c4)nc32)c1 [Compound 5, N-(3-(3-benzyl-7-((1-cyclopropyl-1H-pyrazol-4-yl)amino)-2-oxo-3,4-dihydropyrimido[4,5-d]pyrimidin-1(2H)-yl)phenyl)acrylamide]
0.5	0.7	–	–	–	C=CC(=O)Nc1cccc(N2C(=O)N(c3ccc(F)cc3)Cc3cnc(Nc4cnn(C)c4)nc32)c1 [Compound 17, N-(3-(3-(4-fluorophenyl)-7-((1-methyl-1H-pyrazol-4-yl)amino)-2-oxo-3,4-dihydropyrimido[4,5-d]pyrimidin-1(2H)-yl)phenyl)acrylamide]
